Source: US6380255B1, “Treatment for dermal skin atrophy using thyroid hormone compounds or thyroid hormone-like compounds” (Karo Bio AB, priority 1995, dated 2002)
Where “and” joins values, the source holds several entries; their conditions need not be identical. Equal entries are not always repeated.

System: Balb/c mice
Test: Prevention of glucocorticoid (betamethasone)-induced dermal atrophy in normal mice, dermis thickness in Van Gieson stained biopsies
Assay type: in vivo, mouse
Conditions: for Thickness of dermis, mean (mm) / Thickness of dermis (mm) in 5 low power fields (×10): one week
Excerpt: Normal Balb/c mice were used for the experiments. […] Therefore each averaged measurement represents 25 determinations.
In FIGS. 1-3, the arrows show the dermal layer which is predominantly collagen fibers.

[1] = Bet. 0.2 mM + 0.0008 mM test compound, topical daily
[2] = Bet. 0.2 mM + 0.008 mM test compound, topical daily
[3] = Bet. 0.2 mM + 0.08 mM test compound, topical daily
[4] = Bet. 0.2 mM + 0.8 mM test compound, topical daily

Appearance of dermis in biopsy micrograph (FIG. 1) (betamethasone alone for one week) | SMILES | Thickness of dermis, mean (mm) (Bet. 0.2 mM + placebo cr. (hydrophilic cream)) | Thickness of dermis (mm) in 5 low power fields (×10) (Bet. 0.2 mM + placebo cr. (hydrophilic cream), listed as Bet.) | Thickness of dermis, mean (mm) (Betamethasone 0.2 mM alone, 100 μl topical daily) | Thickness of dermis (mm) in 5 low power fields (×10) [1] | Thickness of dermis, mean (mm) [1] [mm] | Thickness of dermis (mm) in 5 low power fields (×10) [2] | Thickness of dermis, mean (mm) [2] [mm] | Thickness of dermis (mm) in 5 low power fields (×10) [3] | Thickness of dermis, mean (mm) [3] [mm] | Thickness of dermis (mm) in 5 low power fields (×10) [4] | Thickness of dermis, mean (mm) [4] [mm] | Thickness of dermis (mm) in 5 low power fields (×10) (0.8 mM test compound alone (no betamethasone)) | Appearance of dermis in biopsy micrograph (FIG. 3) (Triac alone for one week) | Concentration at which the effect on betamethasone-induced atrophy saturates (range 0.0008 to 8 mM)
very thinned | C[C@H]1C[C@H]2[C@@H]3CCC4=CC(=O)C=C[C@]4(C)[C@@]3(F)[C@@H](O)C[C@]2(C)[C@@]1(O)C(=O)CO [Betamethasone, betamethasone, reference compound] | 0.40 | 0.40 mm and 0.42 mm and 0.38 mm and 0.39 mm | 0.37 mm and 0.42 mm |  |  |  |  |  |  |  |  |  |  | 
 | OCc1cc(I)c(Oc2ccc(O)c(I)c2)c(I)c1 [KB-026, 4-(4-hydroxymethyl-2,6-diiodophenoxy)-2-iodo-phenol] |  |  |  | 0.40 mm and 0.41 mm and 0.42 mm | 0.41 | 0.45 mm and 0.42 mm and 0.46 mm and 0.44 mm | 0.44 | 0.44 mm and 0.50 mm and 0.49 mm and 0.46 mm | 0.48 | 0.50 mm and 0.52 mm and 0.48 mm and 0.51 mm | 0.50 |  |  | 
 | CC(C)c1cc(Oc2c(Br)cc(Cc3nnn[nH]3)cc2Br)ccc1O [KB-067, 4-[2,6-dibromo-4-(1H-tetrazol-5-ylmethyl)-phenoxy]-2-isopropyl-phenol] |  |  |  | 0.42 mm and 0.39 mm and 0.40 mm | 0.40 | 0.40 mm and 0.39 mm and 0.41 mm | 0.40 | 0.40 mm and 0.41 mm and 0.39 mm | 0.40 | 0.45 mm and 0.46 mm and 0.47 mm and 0.48 mm | 0.46 |  |  | 
 | O=C(O)Cc1cc(I)c(Oc2ccc(O)c(I)c2)c(I)c1 [TriAc, [4-(4-hydroxy-3-iodophenoxy)-3,5-diiodophenyl]acetic acid] |  |  |  | 0.40 mm and 0.36 mm and 0.38 mm | 0.38 | 0.40 mm and 0.44 mm | 0.45 |  |  |  |  | 0.72 mm and 0.82 mm and 0.84 mm and 0.76 mm | very dense and thicker than that shown in FIG. 2 | approximately 0.8 mM
 | O=C(O)CCc1cc(I)c(Oc2ccc(O)c(I)c2)c(I)c1 [TriProp] |  |  |  | 0.41 mm and 0.40 mm and 0.46 mm | 0.42 | 0.45 mm and 0.50 mm and 0.40 mm and 0.42 mm and 0.48 mm | 0.45 | 0.50 mm and 0.48 mm and 0.47 mm and 0.44 mm | 0.48 | 0.50 mm and 0.45 mm and 0.47 mm and 0.48 mm and 0.52 mm | 0.48 |  |  | 
